For this experiment, the target named is T1, CYP17A1 (Homo sapiens, UniProt P05093).
T1 construct: expressed in transfected cells
T1 sequence (P05093 1-508): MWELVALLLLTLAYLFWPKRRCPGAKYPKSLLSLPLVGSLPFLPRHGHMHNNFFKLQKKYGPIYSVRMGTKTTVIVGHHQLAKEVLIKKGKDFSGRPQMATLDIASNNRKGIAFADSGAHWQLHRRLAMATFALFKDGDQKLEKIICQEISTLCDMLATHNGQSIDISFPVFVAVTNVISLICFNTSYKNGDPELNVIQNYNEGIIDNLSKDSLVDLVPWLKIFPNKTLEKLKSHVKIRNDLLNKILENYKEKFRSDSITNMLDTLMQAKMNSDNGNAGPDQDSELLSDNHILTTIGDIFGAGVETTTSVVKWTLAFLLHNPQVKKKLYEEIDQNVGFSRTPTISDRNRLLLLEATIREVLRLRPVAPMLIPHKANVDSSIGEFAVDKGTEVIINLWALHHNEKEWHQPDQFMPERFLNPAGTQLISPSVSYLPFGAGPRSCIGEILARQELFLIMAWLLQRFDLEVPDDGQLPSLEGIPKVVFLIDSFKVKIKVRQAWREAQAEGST
Nature of the experiment: Conversion of [3H]-pregnenolone to DHEA in 293 cells expressing CYP17A1. Format: cell-based. Particulars: for CYP17A1 inhibition activity relative to Abi and D4A: 293 cells overexpressing CYP17A1, [3H]-pregnenolone to DHEA. From the text:
LNCaP and VCaP cells were purchased from the American Type Culture Collection (Manassas, Va.) and maintained in RPMI-1640 with 10% FBS. LAPC4 cells were kindly provided by Dr. Charles Sawyers (Memorial Sloan Kettering Cancer Center, New York, N.Y.) and grown in Iscove's Modified Dulbecco's Medium with 10% FBS. C4-2 cells were kindly provided by Dr. Leland Chung (Cedars-Sinai Medical Center, Los Angeles, Calif.) and maintained in RPMI-1640 with 10% FBS. All experiments done with LNCaP and VCaP were done in plates coated with poly-DL-ornithine (Sigma-Aldrich, St. Louis, Mo.). A 293 cell line stably expressing human CYP17A1 was generated by transfection with plasmid pcDNA3-CYP17 (a generous gift of Dr. Walter Miller, University of California, San Francisco) and selection with G418. Cell lines was authenticated by DDC Medical (Fairfield, Ohio) and determined to be […] mycoplasma free with primers.
Cell Line Metabolism: Cells were seeded and incubated in 12-well plates with 0.2 million cells/well for ˜24 h and then incubated with a mixture of radioactive ([^3H]-labeled) and non-radioactive androgens (final concentration, 100 nM; ˜1,000,000 cpm/well; PerkinElmer, Waltham, Mass.) at 37° C. Aliquots of medium were collected at the indicated times. Collected medium was treated with 1,000 units of β-glucuronidase (Helix pomatia; Sigma-Aldrich) at 65° C. for 2 h, extracted with 860 μL ethyl acetate:isooctane (1:1), and concentrated under nitrogen gas. Xenograft Metabolism: 10^7 LNCaP or VCaP cells were injected subcutaneously with Matrigel into surgically orchiectomized NSG mice that were implanted with 5 mg 90-day sustained-release DHEA pellets (Innovative Research of American, Sarasota, Fla.). Xenografts were harvested when they reached 1000 mm^3, minced, and cultured in DMEM with 10% FBS at 37° C. with mixture of radioactive ([^3H]-labeled) and non-radioactive androgens, or Abi, when they reached 1000 mm^3. Each xenograft was analyzed in triplicate in at least three independent experiments. Aliquots of medium were collected at the indicated times. […]
Dried samples were reconstituted in 50% methanol and injected into the HPLC. […] Alternatively, dried samples were applied to plastic-backed silica gel plates and separated by thin-layer chromatography (TLC) using a mobile phase of 3:1 chloroform:ethyl acetate, followed by exposure of the plates to a phosphorimager screen and quantitated with a Storm model 860 phosphorimager (Applied Biosystems, Foster City, Calif.). […]
Cell lines, drugs and constructs. […] Cell lines were authenticated by DDC Medical (Fairfield, Ohio) and determined to be mycoplasma free with primers. […]

For `C[C@]12CCC(=O)C=C1CC[C@@H]1[C@@H]2CC[C@]2(C)C(c3cccnc3)=CC[C@@H]12` [Compound D4A, 17-(3-Pyridyl)androsta-4,16-dien-3-one], where the note is “1 nM drug, 3 h incubation, vehicle 70.1%”, the “% conversion to DHEA” value is on record as 4.2%.
With `C[C@]12CCC(=O)C[C@@H]1CC[C@@H]1[C@@H]2CC[C@]2(C)C(c3cccnc3)=CC[C@@H]12` [Compound 5α-Abi, 17-(3-pyridyl)-5α-androsta-16-ene-3-one], the “CYP17A1 inhibition activity relative to Abi and D4A” value is recorded as “attenuated”.
On the same count and under the same terms, the value for `C[C@]12CC[C@@H](O)C[C@@H]1CC[C@@H]1[C@@H]2CC[C@]2(C)C(c3cccnc3)=CC[C@@H]12` [Compound 3α-OH-5α-Abi, 17-(3-pyridyl)-5α-androsta-16-ene-3α-ol] was “attenuated”.

The values above are taken from US10265329B2, “Altering steroid metabolism for treatment of steroid-dependent disease” (THE CLEVELAND CLINIC FOUNDATION, priority 2015, dated 2019).
